# Test results published in patent US20160378909A1, “PROCESS FOR IDENTIFYING CULTURE CONDITIONS FOR A CELL OR ORGANISM” (GLAXOSMITHKLINE BIOLOGICALS SA, priority 2013, published 2016).
# Counter-ions that a name gives are not always drawn. Like-named read-outs stand apart in the source and are kept apart here.
# System: Bordetella pertussis
# Test: microbe, parasite or virus in culture
# Type: cell-based
# Conditions: for activity at 0.2 µg/mL / activity at 2 µg/mL / activity at 0.3 µg/mL / activity at 3 µg/mL / activity at 2000 µM / activity at 6000 µg/mL / activity at 1 µg/mL / activity at 10 µg/mL / activity at 0.1 µg/mL: Bordetella pertussis
# Method: Cells were harvested by centrifugation, washed twice with NaCl 0.9% (w/v), and resuspended in fresh medium (de novo minimal CDM; see composition in Table 1) at a theoretical OD650 nm of 0.5, as calculated from the OD650 nm of the culture before harvest. 20 μl of this cell suspension were used to inoculate each well of a 96-well microtiter plate filled with 180 μl of de novo minimal CDM. Only the inner wells of the plate were used for cultures, in order to minimize evaporation, and two controls were included, in which the supplement solution was replaced with water.
# The plate was then incubated for 7 days at 35° C. in a Biotek Synergy H1 reader with constant shaking, and growth was automatically monitored every 10 minutes as OD650 nm.
# The relative growth yield and growth rate for each supplement was then averaged over the three independent repeats, and the standard deviation was calculated.
# [1] = 1.89 mg/L in medium, first generation, relative to water controls
# [2] = 1.89 mg/L in medium, max OD650 nm relative to water controls
# [3] = 18.9 mg/L in medium, first generation, relative to water controls
# [4] = 18.9 mg/L in medium, max OD650 nm relative to water controls
# [5] = 10 mg/L in medium, first generation, relative to water controls
# [6] = 10 mg/L in medium, max OD650 nm relative to water controls
# [7] = 1 mM in medium, first generation, relative to water controls
# [8] = 2 mM in medium, max OD650 nm relative to water controls
# [9] = 168 h, read-out: Relative yield Average, 0.2 mg/L in medium, max OD650 nm relative to water controls
# [10] = 168 h, read-out: Relative yield Average, 2 mg/L in medium, max OD650 nm relative to water controls
# [11] = read-out: Relative growth rate Average, 0.2 mg/L in medium, first generation, relative to water controls
# [12] = read-out: Relative growth rate Average, 2 mg/L in medium, first generation, relative to water controls
# [13] = 5 mM in medium, first generation, relative to water controls
# [14] = 5 mM in medium, max OD650 nm relative to water controls
# [15] = 50 mM in medium, first generation, relative to water controls
# [16] = 50 mM in medium, max OD650 nm relative to water controls
# [17] = 168 h, read-out: Relative yield Average, 2 mM in medium, max OD650 nm relative to water controls
# [18] = 168 h, read-out: Relative yield Average, 1 mg/L in medium, max OD650 nm relative to water controls
# [19] = read-out: Relative growth rate Average, 1 mg/L in medium, first generation, relative to water controls
compound,measurement,setting,value
O.O=S(=O)([O-])[O-].[Mn+2] [MnSO4•H2O],Relative growth rate Average,[1],91.27%
same,Relative yield Average,[2],109.53%
same,Relative growth rate Average,[3],47.58%
same,Relative yield Average,[4],91.55%
NC(=O)c1ccc[n+]([C@@H]2O[C@H](COP(=O)([O-])OP(=O)(O)OC[C@H]3O[C@@H](n4cnc5c(N)ncnc54)[C@H](O)[C@@H]3O)[C@@H](O)[C@H]2O)c1 [NAD],Relative growth rate Average,[5],100.14%
same,Relative yield Average,[6],100.15%
same,Relative growth rate Average,"100 mg/L in medium, first generation, relative to water controls",97.38%
same,Relative yield Average,"100 mg/L in medium, max OD650 nm relative to water controls",104.61%
Cl.N [NH4Cl],Relative growth rate Average,[7],98.56%
same,Relative yield Average,"1 mM in medium, max OD650 nm relative to water controls",104.80%
O=P([O-])([O-])O.[Na+].[Na+] [Na2HPO4],Relative growth rate Average,[7],99.98%
same,Relative growth rate Average,"10 mM in medium, first generation, relative to water controls",101.26%
O.O.[Na+].[Na+].[O]=[Mo](=[O])([O-])[O-] [Na2MoO4•2H2O],Relative growth rate Average,"0.94 mg/L in medium, first generation, relative to water controls",86.76%
same,Relative yield Average,"0.94 mg/L in medium, max OD650 nm relative to water controls",101.96%
same,Relative growth rate Average,"9.4 mg/L in medium, first generation, relative to water controls",91.79%
same,Relative yield Average,"9.4 mg/L in medium, max OD650 nm relative to water controls",105.65%
O=C([O-])O.[Na+] [NaHCO3],Relative yield Average,[8],102.33%
[I-].[K+] [Potassium iodide],Relative growth rate Average,"0.47 mg/L in medium, first generation, relative to water controls",94.69%
same,Relative yield Average,"0.47 mg/L in medium, max OD650 nm relative to water controls",101.89%
same,Relative growth rate Average,"4.7 mg/L in medium, first generation, relative to water controls",99.91%
same,Relative yield Average,"4.7 mg/L in medium, max OD650 nm relative to water controls",104.26%
Cc1ncc(CO)c(CO)c1O [Pyridoxine],activity at 0.2 µg/mL,[9],95 to 105%
same,activity at 2 µg/mL,[10],95 to 105%
same,activity at 0.2 µg/mL,[11],95 to 105%
same,activity at 2 µg/mL,[12],95 to 105%
Cc1cc2nc3c(=O)[nH]c(=O)nc-3n(C[C@H](O)[C@H](O)[C@H](O)CO)c2cc1C [Riboflavin],activity at 0.3 µg/mL,"168 h, read-out: Relative yield Average, 0.3 mg/L in medium, max OD650 nm relative to water controls",95 to 105%
same,activity at 3 µg/mL,"168 h, read-out: Relative yield Average, 3 mg/L in medium, max OD650 nm relative to water controls",95 to 105%
same,activity at 0.3 µg/mL,"read-out: Relative growth rate Average, 0.3 mg/L in medium, first generation, relative to water controls",> 105%
same,activity at 3 µg/mL,"read-out: Relative growth rate Average, 3 mg/L in medium, first generation, relative to water controls",95 to 105%
C[C@H](O)C(=O)[O-].[Na+] [Sodium L-Lactate],Relative growth rate Average,[13],128.73%
same,Relative yield Average,[14],100.70%
same,Relative growth rate Average,[15],103.33%
same,Relative yield Average,[16],192.99%
CC(=O)[O-].[Na+] [Sodium acetate],Relative growth rate Average,[13],101.45%
same,Relative yield Average,[14],99.15%
same,Relative growth rate Average,[15],71.40%
same,Relative yield Average,[16],152.20%
O=C[O-].[Na+] [Sodium formate],Relative growth rate Average,"2 mM in medium, first generation, relative to water controls",97.36%
same,Relative yield Average,[8],143.35%
same,Relative growth rate Average,"20 mM in medium, first generation, relative to water controls",89.12%
same,Relative yield Average,"20 mM in medium, max OD650 nm relative to water controls",168.28%
CC(=O)C(=O)O [Sodium pyruvate],activity at 2000 µM,[17],< 95%
same,activity at 2000 µM,"read-out: Relative growth rate Average, 2 mM in medium, first generation, relative to water controls",< 95%
O=C(O)CCC(=O)O [Succinic acid],activity at 2000 µM,[17],< 95%
OC[C@H]1O[C@@](CO)(O[C@H]2O[C@H](CO)[C@@H](O)[C@H](O)[C@H]2O)[C@@H](O)[C@@H]1O [Sucrose],activity at 6000 µg/mL,"168 h, read-out: Relative yield Average, 6 g/L in medium, max OD650 nm relative to water controls",> 105%
same,activity at 6000 µg/mL,"read-out: Relative growth rate Average, 6 g/L in medium, first generation, relative to water controls",95 to 105%
"OB(O)O [Supplement H3BO3, H3BO3]",Relative growth rate Average,"2.36 mg/L in medium, first generation, relative to water controls",93.25%
same,Relative yield Average,"2.36 mg/L in medium, max OD650 nm relative to water controls",96.86%
Cc1ncc(C[n+]2csc(CCO)c2C)c(N)n1 [Thiamine HCl],activity at 1 µg/mL,[18],95 to 105%
same,activity at 10 µg/mL,"168 h, read-out: Relative yield Average, 10 mg/L in medium, max OD650 nm relative to water controls",> 105%
same,activity at 1 µg/mL,[19],95 to 105%
same,activity at 10 µg/mL,"read-out: Relative growth rate Average, 10 mg/L in medium, first generation, relative to water controls",> 105%
O=c1cc[nH]c(=O)[nH]1 [Uracil],activity at 0.1 µg/mL,"168 h, read-out: Relative yield Average, 0.1 mg/L in medium, max OD650 nm relative to water controls",95 to 105%
same,activity at 1 µg/mL,[18],101%
same,activity at 0.1 µg/mL,"read-out: Relative growth rate Average, 0.1 mg/L in medium, first generation, relative to water controls",95 to 105%
same,activity at 1 µg/mL,[19],94.8%
[Cl-].[Cl-].[Zn+2] [ZnCl2],Relative growth rate Average,[5],103.27%
O.O.O.O.O.O.O.O=S(=O)([O-])[O-].[Zn+2] [ZnSO4•7H2O],Relative growth rate Average,[1],91.58%
same,Relative yield Average,[2],191.76%
same,Relative growth rate Average,[3],99.13%
same,Relative yield Average,[4],163.55%
Nc1ccc(C(=O)O)cc1 [para-aminobenzoic acid],activity at 0.2 µg/mL,[9],95 to 105%
same,activity at 2 µg/mL,[10],95 to 105%
same,activity at 0.2 µg/mL,[11],> 105%
same,activity at 2 µg/mL,[12],95 to 105%
Calcium pantothenate,Relative growth rate Average,"1 mg/L in medium, first generation, relative to water controls",102.18%
same,Relative yield Average,"1 mg/L in medium, max OD650 nm relative to water controls",106.59%
same,Relative growth rate Average,[5],102.47%
same,Relative yield Average,[6],98.99%
